In patent US8163927B2, “Azabicyclo [3.1.0] hexane derivatives as modulators of dopamine D3 receptors” (Glaxo Group Limited, priority 2006, dated 2012):

Biological target: T1, D2 receptors (Homo sapiens, UniProt P14416)
T1 construct: expressed in transfected cells
Test: GTPS scintillation proximity assay (GTPS-SPA), CHO_D2 cell membranes
Format: biochemical
Conditions: up to the highest concentration tested in the assay (3 μM)
Description: Functional potency of compounds of this invention can be measured by the following GTPS scintillation proximity assay (GTPS-SPA). Cells used in the study are Chinese Hamster Ovary (CHO) Cells.
All steps are performed at 4° C. Cell membranes are prepared as follows. Cell pellets are resuspended in 10 volumes of 50 mM HEPES, 1 mM EDTA pH 7.4, using KOH.
Cells are homogenised within a glass waring blender for 2 bursts of 15 secs in 200 mls of buffer (50 mM HEPES, 1 mM leupeptin, 25 μg/ml bacitracin, 1 mM EDTA, 1 mM PMSF, 2 μM Pepstatin A). (the latter 2 reagents added as fresh ×100 and ×500 stocks respectively in ethanol). […]
The final top concentration of test drug is 3 μM in the assay and 11 points serial dilution curves 1:4 in 100% DMSO are carried out using a Biomek FX. […] The final assay cocktail (45.5 μl) is incubated at room temperature to equilibrate for 3-6 hours before reading on a ViewLux™ (613/55 filter) luminescence imager 5 min/plate.
The effect of the test drug over the basal generates fpKi values of test drug are calculated from the IC50 generated by “antagonist format” experiment, using Cheng & Prusoff equation: fKi=IC50/1+([A]/EC50) where: [A] is the concentration of the agonist Quinelorane in the assay and EC50 is the Quinelorane EC50 value obtained in the same experiment. fpKi is defined as −log fKi. […]

T1 sequence (P14416 whole entry): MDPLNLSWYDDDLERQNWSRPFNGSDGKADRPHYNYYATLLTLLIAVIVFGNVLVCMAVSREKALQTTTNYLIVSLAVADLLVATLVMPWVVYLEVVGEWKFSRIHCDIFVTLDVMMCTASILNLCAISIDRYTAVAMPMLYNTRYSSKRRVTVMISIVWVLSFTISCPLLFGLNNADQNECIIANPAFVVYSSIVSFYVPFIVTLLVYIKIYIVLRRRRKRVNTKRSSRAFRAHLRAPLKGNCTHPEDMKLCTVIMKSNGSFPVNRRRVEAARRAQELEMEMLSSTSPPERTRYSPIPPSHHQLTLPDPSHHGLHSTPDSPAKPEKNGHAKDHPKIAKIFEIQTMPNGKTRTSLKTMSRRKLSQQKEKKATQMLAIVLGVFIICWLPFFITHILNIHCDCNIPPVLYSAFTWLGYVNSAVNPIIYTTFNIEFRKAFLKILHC

activity in the D2 GTPS-SPA assay	SMILES
no activity	COc1cccn(CCCCN2C[C@@H]3C[C@]3(c3ccc(C(F)(F)F)cc3)C2)c1=O.Cl [Example E8, 3-(methyloxy)-1-(4-{(1S,5R)-1-[4-(trifluoromethyl)phenyl]-3-azabicyclo[3.1.0]hex-3-yl}butyl)-2(1H)-pyridinone hydrochloride]
no activity	Cl.N#Cc1cccn(CCCCN2C[C@@H]3C[C@]3(c3ccc(C(F)(F)F)cc3)C2)c1=O [Example E9, 2-oxo-1-(4-{(1S,5R)-1-[4-(trifluoromethyl)phenyl]-3-azabicyclo[3.1.0]hex-3-yl}butyl)-1,2-dihydro-3-pyridinecarbonitrile hydrochloride]
